Reference: ChEMBL document CHEMBL5352412, “Discovery of 1,2-diphenylethene derivatives as human DNA topoisomerase II catalytic inhibitors and antitumor agents” (Eur J Med Chem, 2022)

How the values were obtained:
MDA-MB-231 = test: Antiproliferative activity against human MDA-MB-231 cells incubated for 72 hrs by CCK8 assay; assay type: functional, cell-based; conditions: Homo sapiens, MDA-MB-231, 72 h
HepG2 = test: Antiproliferative activity against human HepG2 cells incubated for 72 hrs by CCK8 assay; assay type: functional, cell-based; conditions: Homo sapiens, HepG2, 72 h
[1] = target: T1, DNA topoisomerase 2-alpha (Homo sapiens, UniProt P11388); test: Inhibition of human topoisomerase 2-alpha assessed as reduction in relaxation of pBR322 DNA at 100 uM measured after 30 mins by agarose gel electrophoresis method relative to control
[2] = target: T1, DNA topoisomerase 2-alpha; test: Inhibition of human topoisomerase 2-alpha assessed as reduction in relaxation of pBR322 DNA at 25 uM measured after 30 mins by agarose gel electrophoresis method relative to control
[3] = target: T1, DNA topoisomerase 2-alpha; test: Inhibition of human topoisomerase 2-alpha assessed as reduction in relaxation of pBR322 DNA measured after 30 mins by agarose gel electrophoresis method

T1 sequence (P11388 whole entry): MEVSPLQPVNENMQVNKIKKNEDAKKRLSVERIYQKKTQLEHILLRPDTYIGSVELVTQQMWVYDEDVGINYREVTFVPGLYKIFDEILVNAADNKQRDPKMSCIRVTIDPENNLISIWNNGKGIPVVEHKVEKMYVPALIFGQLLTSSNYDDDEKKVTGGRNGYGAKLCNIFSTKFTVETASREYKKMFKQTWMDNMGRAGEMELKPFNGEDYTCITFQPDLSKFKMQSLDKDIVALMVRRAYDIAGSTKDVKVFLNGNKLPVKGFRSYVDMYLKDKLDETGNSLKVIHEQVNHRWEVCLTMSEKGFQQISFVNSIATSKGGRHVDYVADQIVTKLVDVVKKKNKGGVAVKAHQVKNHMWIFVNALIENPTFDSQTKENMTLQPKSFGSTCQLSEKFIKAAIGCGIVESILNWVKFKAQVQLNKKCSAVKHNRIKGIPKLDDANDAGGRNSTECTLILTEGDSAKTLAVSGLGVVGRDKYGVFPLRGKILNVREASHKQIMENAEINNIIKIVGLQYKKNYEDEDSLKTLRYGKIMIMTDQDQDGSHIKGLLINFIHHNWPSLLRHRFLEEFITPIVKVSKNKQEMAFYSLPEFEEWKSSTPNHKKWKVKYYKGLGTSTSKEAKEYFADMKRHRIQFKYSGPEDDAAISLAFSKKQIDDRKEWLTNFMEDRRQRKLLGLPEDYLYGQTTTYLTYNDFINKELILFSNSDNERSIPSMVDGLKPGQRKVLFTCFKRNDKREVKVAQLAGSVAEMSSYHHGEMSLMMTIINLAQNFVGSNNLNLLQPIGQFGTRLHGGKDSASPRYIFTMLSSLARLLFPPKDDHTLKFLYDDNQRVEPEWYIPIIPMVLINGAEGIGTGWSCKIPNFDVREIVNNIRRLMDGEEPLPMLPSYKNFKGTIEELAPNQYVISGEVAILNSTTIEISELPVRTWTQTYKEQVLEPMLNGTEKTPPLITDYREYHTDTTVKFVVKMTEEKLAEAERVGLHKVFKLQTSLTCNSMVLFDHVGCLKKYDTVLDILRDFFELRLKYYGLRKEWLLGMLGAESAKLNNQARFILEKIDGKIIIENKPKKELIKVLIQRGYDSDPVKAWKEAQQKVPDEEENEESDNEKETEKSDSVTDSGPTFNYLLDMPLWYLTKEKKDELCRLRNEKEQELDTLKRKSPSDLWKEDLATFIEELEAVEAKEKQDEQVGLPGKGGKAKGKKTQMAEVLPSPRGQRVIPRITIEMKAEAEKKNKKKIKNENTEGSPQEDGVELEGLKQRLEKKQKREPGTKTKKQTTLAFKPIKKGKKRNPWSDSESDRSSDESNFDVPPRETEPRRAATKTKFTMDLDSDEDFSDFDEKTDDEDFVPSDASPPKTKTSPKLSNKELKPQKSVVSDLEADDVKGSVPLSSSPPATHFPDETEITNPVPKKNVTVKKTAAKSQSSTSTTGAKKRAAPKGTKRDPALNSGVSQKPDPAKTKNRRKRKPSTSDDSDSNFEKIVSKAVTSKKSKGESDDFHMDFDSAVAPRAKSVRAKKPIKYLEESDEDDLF

Compound	IC50 (MDA-MB-231) [µM]	IC50 (HepG2) [µM]	inhibition [1] [%]	inhibition [2] [%]	IC50 [3] [µM]
Oc1ccc2cc(-c3ccc(Cl)cc3Cl)cnc2c1	16.7	–	–	–	–
O=C(CCc1ccccc1)Nc1ccc(/C=C/c2cc(O)cc(O)c2)cc1	33.9	14.5	62.5	16.4	–
Oc1cc(O)cc(/C=C/c2ccc(-c3ccccc3)cc2)c1	10.5	18	81.2	12.2	–
NC(=O)/C=C/c1ccc(/C=C/c2cc(O)cc(O)c2)cc1	–	–	29.8	3.9	–
Oc1cc(O)cc(/C=C/c2ccc(-c3ccsc3)cc2)c1	19.1	31.9	78.5	63.2	–
CNC(=O)/C=C/c1ccc(O)c(/C=C/c2cc(O)cc(O)c2)c1	–	–	63.5	1.2	–
O=C(/C=C/c1ccccc1)Nc1ccc(O)c(/C=C/c2cc(O)cc(O)c2)c1	24.7	–	98.1	61.5	–
O=C(CCc1ccccc1)Nc1ccc(NC(=O)c2cc(O)cc(O)c2)cc1	–	–	54.5	4.1	–
Oc1ccc(-c2ccc(O)c(/C=C/c3cc(O)cc(O)c3)c2)cc1	15.4	30	86.3	75.4	–
COc1ccc2cc(-c3ccc(NC(=O)CCc4ccccc4)cc3)cnc2c1	21.1	–	19.7	0	–
Oc1cc(O)cc(/C=C/c2cc(-c3ccccc3)ccc2O)c1	7.2	9.5	87.9	81.3	–
COc1ccc2cc(-c3ccc(NC(=O)CCc4ccccc4)cc3)ccc2c1	–	–	0	–	–
O=C(/C=C/c1ccccc1)Nc1cc(/C=C/c2cc(O)cc(O)c2)ccc1O	13.6	24.3	94.5	79.5	–
COc1ccc2nc(-c3ccc(NC(=O)CCc4ccccc4)cc3)sc2c1	–	–	0	–	–
CCCNC(=O)/C=C/c1cc(/C=C/c2cc(O)cc(O)c2)ccc1O	–	–	59.6	1.7	–
Oc1cc(O)cc(/C=C/c2cc(-c3ccoc3)ccc2O)c1	20.1	20.5	82.1	21.3	59.8
COc1ccc2nc(-c3ccc(NC(=O)/C=C/c4ccccc4)cc3)sc2c1	–	–	36.7	0	–
COc1ccc2cc(-c3ccc(NC(=O)/C=C/c4ccccc4)cc3)cnc2c1	39.5	37.4	0.1	–	–
O=C(/C=C/c1ccccc1)Nc1ccc(CCc2cc(O)cc(O)c2)cc1	4.2	2.8	11.3	–	–

Compound	IC50 (MDA-MB-231) [µM]	IC50 (HepG2) [µM]	inhibition [1] [%]	inhibition [2] [%]	IC50 [3] [µM]
O=C(CCc1ccccc1)Nc1ccc(-c2nc3ccc(O)cc3s2)cc1	12.1	4	86.8	7.5	–
COc1cc(/C=C/c2ccc(NC(=O)CCc3ccccc3)cc2)cc(OC)c1	7.2	10.9	0.2	–	–
COc1cc(OC)cc(C(=O)Nc2ccc(NC(=O)/C=C/c3ccccc3)cc2)c1	–	–	2.1	–	–
Oc1cc(O)cc(/C=C/c2ccc(O)c(-c3ccccc3)c2)c1	42.4	–	87.2	10.5	–
O=C(/C=C/c1cc(/C=C/c2cc(O)cc(O)c2)ccc1O)N1CCCCC1	16.7	30	84.5	7.1	–
O=C(/C=C/c1ccccc1)Nc1ccc(NC(=O)c2cc(O)cc(O)c2)cc1	–	36.6	67.2	27.1	–
Oc1cc(O)cc(/C=C/c2ccc(O)c(-c3cccc(O)c3)c2)c1	42.3	–	72.1	34.5	–
C/C=C/C(=O)Nc1ccc(/C=C/c2cc(O)cc(O)c2)cc1	3.8	4.6	12.5	0.4	–
COc1ccc2cc(-c3ccc(NC(=O)/C=C/c4ccccc4)cc3)ccc2c1	–	–	0.1	–	–
CNC(=O)/C=C/c1cc(/C=C/c2cc(O)cc(O)c2)ccc1O	–	–	45	2.4	–
O=C(/C=C/c1ccc(/C=C/c2cc(O)cc(O)c2)cc1)N1CCCCC1	5.7	14	71.1	6.9	–
COc1cc(/C=C/c2ccc(NC(=O)/C=C/c3ccccc3)cc2)cc(OC)c1	–	–	15.3	0.1	–
Oc1cc(O)cc(/C=C/c2ccc(-c3cccc(O)c3)cc2)c1	11.3	18	82.9	63.2	–
Oc1ccc(-c2cc(/C=C/c3cc(O)cc(O)c3)ccc2O)cc1	39.2	–	64	17.6	–
C/C=C/C(=O)Nc1cc(/C=C/c2cc(O)cc(O)c2)ccc1O	21.1	32	9.9	0.2	–
COc1cc(CCc2ccc(NC(=O)/C=C/c3ccccc3)cc2)cc(OC)c1	21.8	–	0.04	–	–
CN(C)C(=O)/C=C/c1ccc(/C=C/c2cc(O)cc(O)c2)cc1	19.9	–	47.8	0.1	–
Oc1cc(O)cc(/C=C/c2ccc(-c3ccoc3)cc2)c1	27.5	24.5	66.1	30.4	–
CCCNC(=O)/C=C/c1ccc(/C=C/c2cc(O)cc(O)c2)cc1	7.8	23.7	65.9	26.8	–

Compound	IC50 (MDA-MB-231) [µM]	IC50 (HepG2) [µM]	inhibition [1] [%]	inhibition [2] [%]	IC50 [3] [µM]
O=C(/C=C/c1ccccc1)Nc1ccc(-c2cnc3cc(O)ccc3c2)cc1	–	–	82.3	55.4	–
O=[N+]([O-])c1cccc(-c2ccc(O)c(/C=C/c3cc(O)cc(O)c3)c2)c1	12.6	18.6	95.5	75.4	–
C/C=C/C(=O)Nc1ccc(O)c(/C=C/c2cc(O)cc(O)c2)c1	–	–	52.7	0.6	–
O=[N+]([O-])c1cccc(-c2ccc(/C=C/c3cc(O)cc(O)c3)cc2)c1	11.4	16.2	68.7	55.3	–
O=C(CCc1ccccc1)Nc1ccc(-c2cnc3cc(O)ccc3c2)cc1	–	–	9.7	–	–
O=C(/C=C/c1ccccc1)Nc1ccc(-c2nc3ccc(O)cc3s2)cc1	15.9	5.3	87.4	43.2	–
COc1cc(OC)cc(C(=O)Nc2ccc(NC(=O)CCc3ccccc3)cc2)c1	–	–	3.7	–	–
COc1cc(CCc2ccc(NC(=O)CCc3ccccc3)cc2)cc(OC)c1	12	3.5	1.2	–	–
Oc1cc(O)cc(/C=C/c2ccc(O)c(-c3ccsc3)c2)c1	22.6	34	86.8	15.2	–
Oc1cc(O)cc(/C=C/c2ccc(O)c(-c3ccoc3)c2)c1	26.6	36.8	77.4	12.6	–
NC(=O)/C=C/c1ccc(O)c(/C=C/c2cc(O)cc(O)c2)c1	–	–	76.6	18.4	–
Oc1cc(O)cc(/C=C/c2cc(-c3cccc(O)c3)ccc2O)c1	31.2	29.1	90.7	79.3	–
Oc1ccc(-c2ccc(/C=C/c3cc(O)cc(O)c3)cc2)cc1	7.8	10.6	83.8	57.1	–
O=[N+]([O-])c1cccc(-c2cc(/C=C/c3cc(O)cc(O)c3)ccc2O)c1	33.2	–	93.6	97.1	–
CNC(=O)/C=C/c1ccc(/C=C/c2cc(O)cc(O)c2)cc1	–	–	29.7	2.3	–
Oc1cc(O)cc(/C=C/c2cc(-c3ccsc3)ccc2O)c1	9.5	8.2	88.4	75.2	–
O=C(CCc1ccccc1)Nc1ccc(CCc2cc(O)cc(O)c2)cc1	4.6	2.9	9.1	–	–
O=C(/C=C/c1ccc(O)c(/C=C/c2cc(O)cc(O)c2)c1)N1CCCCC1	19.8	–	91.3	18.3	–
COc1ccc2nc(-c3ccc(N)cc3)sc2c1	37.2	–	–	–	–
